{"source": "BindingDB's records for doi:10.3109/14756360903017122", "about": "(Indian Institute of Chemical Technology, 2010)", "biological_target": "Sucrase-isomaltase, intestinal (Rattus norvegicus, UniProt P23739)", "sequence (P23739 1-1013 limits assumed)": "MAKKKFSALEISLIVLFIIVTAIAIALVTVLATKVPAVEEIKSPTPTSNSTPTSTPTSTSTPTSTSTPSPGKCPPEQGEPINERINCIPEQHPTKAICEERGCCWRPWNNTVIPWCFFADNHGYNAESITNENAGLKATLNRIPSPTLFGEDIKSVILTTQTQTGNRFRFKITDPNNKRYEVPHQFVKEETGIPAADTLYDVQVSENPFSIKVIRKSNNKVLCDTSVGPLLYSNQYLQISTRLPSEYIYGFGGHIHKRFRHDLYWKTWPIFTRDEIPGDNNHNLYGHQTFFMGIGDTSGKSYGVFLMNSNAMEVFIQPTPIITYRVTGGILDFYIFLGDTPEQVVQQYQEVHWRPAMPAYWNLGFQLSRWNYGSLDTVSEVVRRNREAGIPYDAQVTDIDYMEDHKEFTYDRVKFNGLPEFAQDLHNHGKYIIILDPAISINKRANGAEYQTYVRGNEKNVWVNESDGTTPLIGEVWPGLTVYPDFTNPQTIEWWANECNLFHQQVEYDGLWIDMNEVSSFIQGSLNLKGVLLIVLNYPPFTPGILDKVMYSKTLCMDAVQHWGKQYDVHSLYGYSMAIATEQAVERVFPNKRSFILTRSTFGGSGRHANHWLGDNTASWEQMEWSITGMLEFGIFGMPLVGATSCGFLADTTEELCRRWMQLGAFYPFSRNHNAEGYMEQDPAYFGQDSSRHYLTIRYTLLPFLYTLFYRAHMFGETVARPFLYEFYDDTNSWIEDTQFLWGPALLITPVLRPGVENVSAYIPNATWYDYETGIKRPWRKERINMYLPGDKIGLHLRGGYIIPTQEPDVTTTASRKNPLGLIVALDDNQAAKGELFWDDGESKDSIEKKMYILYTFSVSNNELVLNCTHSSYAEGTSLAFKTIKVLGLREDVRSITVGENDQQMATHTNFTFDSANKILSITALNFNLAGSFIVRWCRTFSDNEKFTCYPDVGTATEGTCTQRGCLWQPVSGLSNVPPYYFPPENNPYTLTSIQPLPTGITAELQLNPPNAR", "sequence (P23739 1014-1841 limits assumed)": "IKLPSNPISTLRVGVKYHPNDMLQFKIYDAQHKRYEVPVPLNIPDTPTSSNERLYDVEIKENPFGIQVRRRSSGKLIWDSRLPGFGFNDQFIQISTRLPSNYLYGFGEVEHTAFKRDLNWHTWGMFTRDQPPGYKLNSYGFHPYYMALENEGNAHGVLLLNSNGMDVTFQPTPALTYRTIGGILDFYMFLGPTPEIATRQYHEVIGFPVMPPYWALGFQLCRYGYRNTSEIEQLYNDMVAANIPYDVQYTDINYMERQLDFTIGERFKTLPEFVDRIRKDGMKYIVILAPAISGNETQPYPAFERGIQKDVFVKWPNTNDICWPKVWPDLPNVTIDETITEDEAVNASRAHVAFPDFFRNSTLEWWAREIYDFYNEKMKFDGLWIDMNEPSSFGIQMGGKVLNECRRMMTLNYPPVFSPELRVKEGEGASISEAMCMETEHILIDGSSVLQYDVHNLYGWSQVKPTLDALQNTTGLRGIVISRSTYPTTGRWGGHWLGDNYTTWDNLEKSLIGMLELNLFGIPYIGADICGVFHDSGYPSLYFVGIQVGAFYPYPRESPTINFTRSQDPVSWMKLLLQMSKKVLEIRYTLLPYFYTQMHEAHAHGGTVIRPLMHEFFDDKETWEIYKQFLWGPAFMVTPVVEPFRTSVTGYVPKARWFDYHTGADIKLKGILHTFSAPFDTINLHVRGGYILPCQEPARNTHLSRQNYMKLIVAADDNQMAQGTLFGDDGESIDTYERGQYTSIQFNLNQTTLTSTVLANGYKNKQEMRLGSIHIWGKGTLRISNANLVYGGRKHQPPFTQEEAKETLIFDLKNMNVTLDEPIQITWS", "test": "In Vitro α-Glucosidase Inhibitory Assay", "conditions": "pH 6.8", "experimental": "Rat intestinal acetone powder in normal saline (100: 1; w/v) was sonicated thoroughly and the supernatant was used as a source of crude intestinal α-glucosidase after centrifugation. In brief, […] of test sample ( 5 mg/mL DMSO solution) was reconstituted in […] of 100 mM phosphate buffer (pH 6.8) in a 96-well microplate and incubated with […] of crude intestinal α-glucosidase for 5 min before […] substrate (5 mM pNPG prepared in same buffer) was added. Release of p-nitrophenol was measured at 405 nm spectrophotometrically (SpectraMax Plus384; Molecular Devices Corp., Sunnyvale, CA, USA) 5 min after incubation withsubstrate. Individual blanks for test samples were prepared to correct background absorbance where substrate was replaced with […] of buffer. The control samplecontained […] of dimethylsulfoxide (DMSO) in place of test sample.", "data": [{"smiles": "O=[N+]([O-])c1ccc2[nH]c(-c3ccncc3)nc2c1", "note": "[6-Nitro-2-(4-pyridyl)-1H-benzo[d]imidazole (3e)]", "values": [{"measurement": "IC50", "result": 99.4, "unit": "µM"}]}]}
